Measurements taken from ChEMBL document CHEMBL5260859, “Discovery and structure-activity relationship study of 2-piperazinyl-benzothiazole derivatives as potent and selective PPARδ agonists” (Bioorg Med Chem, 2023).

Experiments:
[1] = target: T1, Peroxisome proliferator-activated receptor delta (Mus musculus) (UniProt P35396); assay: Agonist activity at Gal4-fused mouse PPAR-delta ligand binding domain expressed in CHO-K1 cells assessed as receptor transactivation incubated for 24 to 48 hrs by luciferase reporter gene assay relative to control; assay type: cell-based; settings: time lower 24.0 hrs, time upper […]
T1 sequence (whole entry): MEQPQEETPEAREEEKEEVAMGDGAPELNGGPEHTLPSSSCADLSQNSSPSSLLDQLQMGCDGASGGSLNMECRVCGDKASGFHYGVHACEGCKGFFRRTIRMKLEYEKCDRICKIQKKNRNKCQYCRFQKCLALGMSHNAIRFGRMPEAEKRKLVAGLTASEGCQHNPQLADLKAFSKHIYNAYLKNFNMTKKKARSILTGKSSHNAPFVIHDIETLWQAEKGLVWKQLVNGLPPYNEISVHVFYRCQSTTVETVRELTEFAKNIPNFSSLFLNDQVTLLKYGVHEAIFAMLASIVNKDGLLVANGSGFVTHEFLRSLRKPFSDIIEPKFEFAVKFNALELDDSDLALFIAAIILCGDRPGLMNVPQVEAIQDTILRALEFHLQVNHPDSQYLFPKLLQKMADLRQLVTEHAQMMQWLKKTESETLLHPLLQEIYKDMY

[2] = target: T2, Peroxisome proliferator-activated receptor alpha (Mus musculus, UniProt P23204); assay: Agonist activity at Gal4-fused mouse PPAR-alpha ligand binding domain expressed in CHO-K1 cells assessed as receptor transactivation incubated for 24 to 48 hrs by luciferase reporter gene assay; assay type: cell-based
T2 sequence (P23204 whole entry): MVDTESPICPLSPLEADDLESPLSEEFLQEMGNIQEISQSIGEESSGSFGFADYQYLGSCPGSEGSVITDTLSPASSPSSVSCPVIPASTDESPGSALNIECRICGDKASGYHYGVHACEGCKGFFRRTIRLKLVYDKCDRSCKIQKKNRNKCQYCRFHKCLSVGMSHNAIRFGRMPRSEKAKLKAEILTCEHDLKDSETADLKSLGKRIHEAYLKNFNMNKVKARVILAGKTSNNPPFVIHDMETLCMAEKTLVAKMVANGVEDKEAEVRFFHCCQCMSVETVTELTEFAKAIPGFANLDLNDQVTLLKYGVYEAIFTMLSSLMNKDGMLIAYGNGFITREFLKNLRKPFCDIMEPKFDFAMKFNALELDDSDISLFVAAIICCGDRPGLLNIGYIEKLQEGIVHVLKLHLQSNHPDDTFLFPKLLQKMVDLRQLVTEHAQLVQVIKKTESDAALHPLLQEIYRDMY

[3] = target: T3, Peroxisome proliferator-activated receptor delta (Mus musculus, UniProt P35396); assay: Agonist activity at Gal4-fused mouse PPAR-delta ligand binding domain expressed in CHO-K1 cells assessed as receptor transactivation incubated for 24 to 48 hrs by luciferase reporter gene assay; assay type: cell-based
T3 sequence (P35396 whole entry): T1 sequence (whole entry)

[4] = target: T4, Peroxisome proliferator-activated receptor delta (Homo sapiens) (UniProt Q03181); assay: Agonist activity at Gal4-fused human PPAR-delta ligand binding domain expressed in CHO-K1 cells assessed as receptor transactivation incubated for 24 to 48 hrs by luciferase reporter gene assay relative to control; assay type: cell-based; settings: time lower 24.0 hrs, time upper […]
T4 sequence (whole entry): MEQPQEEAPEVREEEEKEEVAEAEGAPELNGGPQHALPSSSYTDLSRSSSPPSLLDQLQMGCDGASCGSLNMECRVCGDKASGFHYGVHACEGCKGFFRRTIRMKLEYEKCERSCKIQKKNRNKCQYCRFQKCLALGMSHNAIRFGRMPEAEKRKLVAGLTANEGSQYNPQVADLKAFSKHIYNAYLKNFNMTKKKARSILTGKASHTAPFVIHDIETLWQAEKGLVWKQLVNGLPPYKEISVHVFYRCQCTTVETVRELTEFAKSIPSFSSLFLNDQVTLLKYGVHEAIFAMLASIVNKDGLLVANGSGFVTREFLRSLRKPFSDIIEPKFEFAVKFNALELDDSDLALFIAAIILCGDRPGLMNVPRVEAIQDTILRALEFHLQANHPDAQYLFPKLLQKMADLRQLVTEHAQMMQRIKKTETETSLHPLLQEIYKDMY

[5] = target: T5, Peroxisome proliferator-activated receptor alpha (Mus musculus) (UniProt P23204); assay: Agonist activity at Gal4-fused mouse PPAR-alpha ligand binding domain expressed in CHO-K1 cells assessed as receptor transactivation incubated for 24 to 48 hrs by luciferase reporter gene assay relative to control; assay type: cell-based; settings: time lower 24.0 hrs, time upper […]
T5 sequence (whole entry): T2 sequence (P23204 whole entry)

[6] = target: T6, Peroxisome proliferator-activated receptor delta (Homo sapiens, UniProt Q03181); assay: Agonist activity at Gal4-fused human PPAR-delta ligand binding domain expressed in CHO-K1 cells assessed as receptor transactivation incubated for 24 to 48 hrs by luciferase reporter gene assay; assay type: cell-based
T6 sequence (Q03181 whole entry): T4 sequence (whole entry)

[7] = target: T7, Peroxisome proliferator-activated receptor alpha (Homo sapiens) (UniProt Q07869); assay: Agonist activity at Gal4-fused human PPAR-alpha ligand binding domain expressed in CHO-K1 cells assessed as receptor transactivation incubated for 24 to 48 hrs by luciferase reporter gene assay relative to control; assay type: cell-based; settings: time lower 24.0 hrs, time upper […]
T7 sequence (whole entry): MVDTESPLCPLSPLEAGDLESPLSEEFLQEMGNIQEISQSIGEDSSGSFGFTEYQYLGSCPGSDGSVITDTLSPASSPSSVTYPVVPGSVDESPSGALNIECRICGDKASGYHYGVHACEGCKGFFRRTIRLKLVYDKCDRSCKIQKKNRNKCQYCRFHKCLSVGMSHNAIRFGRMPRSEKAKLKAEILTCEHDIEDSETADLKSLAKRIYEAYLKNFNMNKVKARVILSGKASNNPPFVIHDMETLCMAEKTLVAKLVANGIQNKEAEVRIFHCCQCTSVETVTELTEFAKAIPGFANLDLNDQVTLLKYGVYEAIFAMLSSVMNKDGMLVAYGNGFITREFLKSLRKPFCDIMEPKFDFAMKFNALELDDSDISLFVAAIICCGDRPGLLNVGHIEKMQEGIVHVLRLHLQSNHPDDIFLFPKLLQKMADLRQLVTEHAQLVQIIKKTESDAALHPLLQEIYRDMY

[8] = target: T8, Peroxisome proliferator-activated receptor gamma (Mus musculus, UniProt P37238); assay: Agonist activity at Gal4-fused mouse PPAR-gamma ligand binding domain expressed in CHO-K1 cells assessed as receptor transactivation incubated for 24 to 48 hrs by luciferase reporter gene assay; assay type: cell-based
T8 sequence (P37238 whole entry): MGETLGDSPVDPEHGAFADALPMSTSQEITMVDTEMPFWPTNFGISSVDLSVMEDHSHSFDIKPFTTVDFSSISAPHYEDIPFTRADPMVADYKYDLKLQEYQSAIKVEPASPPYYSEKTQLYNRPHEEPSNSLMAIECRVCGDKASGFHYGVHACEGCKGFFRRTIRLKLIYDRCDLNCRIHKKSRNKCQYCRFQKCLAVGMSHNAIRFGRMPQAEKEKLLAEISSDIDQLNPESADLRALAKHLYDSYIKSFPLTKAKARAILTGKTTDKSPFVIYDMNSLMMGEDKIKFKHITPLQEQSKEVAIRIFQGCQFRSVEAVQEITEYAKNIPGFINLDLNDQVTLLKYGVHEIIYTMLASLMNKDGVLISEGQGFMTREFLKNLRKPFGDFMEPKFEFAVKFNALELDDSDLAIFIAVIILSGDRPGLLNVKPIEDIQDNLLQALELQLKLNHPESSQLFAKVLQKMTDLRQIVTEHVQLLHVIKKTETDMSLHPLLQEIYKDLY

Mus musculus [9] = assay: Antihypercholesterolemic activity against hApoB100/hCETP-dTg hypercholesterolemic mouse model assessed as serum non-HDL-C level at 3 mg/kg, po administered once daily for 8 days; assay type: functional; settings: time 8 day
Mus musculus [10] = assay: Antihypercholesterolemic activity against hApoB100/hCETP-dTg hypercholesterolemic mouse model assessed as serum HDL-C level at 3 mg/kg, po administered once daily for 8 days; assay type: functional; settings: time 8 day
[11] = target: T9, Peroxisome proliferator-activated receptor gamma (Homo sapiens, UniProt P37231); assay type: cell-based, CHO-K1
T9 sequence (P37231 whole entry): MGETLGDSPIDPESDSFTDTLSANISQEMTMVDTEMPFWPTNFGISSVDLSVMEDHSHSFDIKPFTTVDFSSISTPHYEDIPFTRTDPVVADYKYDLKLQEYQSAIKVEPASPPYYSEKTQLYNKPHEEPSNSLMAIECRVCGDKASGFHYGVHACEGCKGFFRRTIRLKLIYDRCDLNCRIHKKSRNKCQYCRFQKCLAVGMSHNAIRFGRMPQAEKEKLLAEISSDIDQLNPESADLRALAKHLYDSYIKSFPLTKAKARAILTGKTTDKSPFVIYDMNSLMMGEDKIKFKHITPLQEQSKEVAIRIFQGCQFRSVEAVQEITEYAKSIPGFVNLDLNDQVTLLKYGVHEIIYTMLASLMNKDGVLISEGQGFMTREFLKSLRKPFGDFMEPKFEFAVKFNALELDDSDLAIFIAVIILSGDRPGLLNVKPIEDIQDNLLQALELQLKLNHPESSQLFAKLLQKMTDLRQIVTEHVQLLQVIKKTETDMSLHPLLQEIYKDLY

Mus musculus [12] = species on record: Mus musculus; assay: Selectivity ratio of EC50 for agonist activity at Gal4-fused mouse PPAR-alpha ligand binding domain expressed in CHO-K1 cells to EC50 for agonist activity at Gal4-fused mouse PPAR-delta ligand binding domain expressed in CHO-K1 cells; assay type: cell-based
Mus musculus [13] = species on record: Mus musculus; assay: Selectivity ratio of EC50 for agonist activity at Gal4-fused mouse PPAR-gamma ligand binding domain expressed in CHO-K1 cells to EC50 for agonist activity at Gal4-fused mouse PPAR-delta ligand binding domain expressed in CHO-K1 cells; assay type: cell-based

Row | SMILES | Emax [1] [%] | EC50 [2] [nM] | EC50 [3] [nM] | Emax [4] [%] | Emax [5] [%] | EC50 [6] [nM] | Emax [7] [%] | EC50 [8] [nM] | Activity (Mus musculus [9]) [%] | Activity (Mus musculus [10]) [%] | EC50 [11] [nM] | Ratio EC50 (Mus musculus [12]) | Ratio EC50 (Mus musculus [13])
1 | C[C@H]1CN(c2nc3ccc(Cl)cc3s2)CCN1CCOc1cc(CC(=O)O)ccc1Cl | 23.2 | 7100 | 12 | 15.5 | 8.3 | 5 | – | – | – | – | – | – | –
2 | CC1CN(c2nc3ccc(Cl)cc3s2)CCC1CCOc1cc(CC(=O)O)ccc1Cl (stereo not given) | 28.7 | 3600 | 47 | – | 14.2 | – | 3 | 1000 | – | – | – | – | –
3 | Cc1cc(CC(=O)O)cc(CN2CCN(c3nc4ccc(C(F)(F)F)cc4s3)CC2)c1 | 19 | 3000 | – | – | 6.6 | – | – | 3300 | – | – | – | – | –
4 | C[C@H]1CN(CCOc2cc(CC(=O)O)ccc2Cl)CCN1c1nc2ccc(Cl)cc2s1 | 27.9 | 13000 | 27 | 23.9 | 16.7 | 17 | – | 150 | – | – | – | – | –
5 | Cc1cc(CC(=O)O)cc(CN2CCN(c3nc4ccc(C(F)(F)F)cc4s3)C[C@H]2C)c1 | 22.1 | 8000 | 34 | 15.5 | 19 | 9.9 | – | – | – | – | – | – | –
6 | Cc1cc(CC(=O)O)cc(CN2CCN(c3nc4ccc(C(F)(F)F)cc4s3)[C@H](C(C)C)C2)c1 | 14.6 | – | 7.5 | 13.1 | 1.3 | 3.7 | – | 230 | – | – | – | – | –
7 | Cc1ccc(CC(=O)O)cc1OCCN1CCN(c2nc3ccc(Cl)cc3s2)C[C@@H]1C | 21.7 | 4900 | 25 | – | 6.9 | – | – | 500 | – | – | – | – | –
8 | C[C@@H]1CN(c2nc3ccc(Cl)cc3s2)CCN1CCOc1cc(CC(=O)O)ccc1Cl | 28.3 | 3200 | 47 | 19.8 | 21 | 16 | – | – | – | – | – | – | –
9 | C[C@@H]1CN(CCOc2cc(CC(=O)O)ccc2Cl)CCN1c1nc2ccc(Cl)cc2s1 | 27.6 | 3900 | 46 | 21.9 | 12.5 | 7.9 | – | 4.1 | – | – | – | – | –
10 | Cc1cc(SCc2sc(-c3ccc(C(F)(F)F)cc3)nc2C)ccc1OCC(=O)O [GW501516] | – | – | – | – | – | – | – | – | 67 | 141 | – | – | –
11 | CC[C@H]1CN(c2nc3ccc(Cl)cc3s2)CCC1CCOc1cc(CC(=O)O)ccc1Cl (stereo not given in full) | 31.3 | 3400 | 5.8 | – | 6.1 | – | – | 390 | – | – | – | – | –
12 | Cc1cc(CC(=O)O)cc(CN2CCN(c3nc4ccc(C(F)(F)F)cc4s3)C[C@@H]2C)c1 | 22.1 | – | 28 | 19.5 | 1.1 | 6.9 | – | – | – | – | – | – | –
13 | CC[C@@H]1CN(Cc2cc(C)cc(CC(=O)O)c2)CCN1c1nc2ccc(C(F)(F)F)cc2s1 | 33.1 | 8500 | – | – | 2.8 | – | – | 40 | – | – | – | – | –
14 | Cc1cc(CC(=O)O)cc(CN2CCN(c3nc4ccc(C(F)(F)F)cc4s3)[C@@H](CC(C)C)C2)c1 | 17.9 | 5800 | 79 | 13.6 | 4.5 | 19 | 1.4 | – | – | – | 1500 | 73 | –
15 | CC(C)C[C@H]1CN(c2nc3ccc(Cl)cc3s2)CCC1CCOc1cc(CC(=O)O)ccc1Cl (stereo not given in full) | 28.3 | – | 61 | 23.2 | 4.6 | 17 | 3.1 | 660 | – | – | 1100 | – | 11
16 | CC[C@H]1CN(Cc2cc(C)cc(CC(=O)O)c2)CCN1c1nc2ccc(C(F)(F)F)cc2s1 | 30.8 | 3800 | – | – | 9.1 | – | – | 670 | – | – | – | – | –
17 | Cc1ccc(CC(=O)O)cc1OCCN1CCN(c2nc3ccc(Cl)cc3s2)CC1 | 25.3 | – | 110 | 14.4 | – | 33 | – | – | – | – | – | – | –
